# Marks after values point to notes of the source that are not given here.
# Key:
# [1] = system: rabbit corneal wound model; assay: Corneal wound healing promotion action 2 (in vivo), wound of approximately 8 mm; conditions: 0.3% eye drop, 25 μl instillation
# Procedure: Using the same method as (2) above, corneal epithelial abrasion was induced in a Japanese white rabbit to produce a wound of approximately 8 mm in diameter in the cornea. The wound area was measured using the fluorescein-stained area as an index to examine the effects on corneal wound healing.
# The eye drops containing the respective concentrations of the test compound were instilled (25 μl at a time) at 0, 6, 12, 18, 24, 30, 36, 42, 48, and 54 hours after induction corneal epithelial abrasion. In measuring the wound area, fluorescein staining was carried out and a photograph of the cornea was measured. The fluorescein-stained area of the photographed cornea was computed using an image analysis processing system.
# (§1) In Tables 3 and 4, the respective values indicate the mean value±standard deviation (n=6). Statistical analysis was carried out using Dunnett's multiple comparison with respect to physiological saline with the area of the corneal wound portion immediately after (0 hours after) corneal epithelial abrasion being set to 100% (*p<0.05, **p<0.01; vs. control).
# [2] = system: rabbit corneal wound model; assay: Corneal wound healing promotion action 1 (in vivo), wound of approximately 6 mm; conditions: 5 μM eye drop, 30 μl instillation
# Procedure: Using a male Japanese white rabbit, a wound of approximately 6 mm in diameter was produced in the cornea by inducing corneal epithelial abrasion in accordance with the method of Cintron et al. (Ophthalmic Res., 11, pp. 90-96 (1979)). The wound area was measured using the fluorescein-stained area as an index. The effects of the test compound on corneal wound healing were examined.
# The eye drops containing the respective concentrations of the test compound were instilled (30 μl at a time) at 0, 3, 6, 9, 12, 18, 24, 27, 30, 33, 36, 42, and 48 hours after inducing corneal epithelial abrasion. In measuring the wound area, fluorescein staining was carried out and a photograph of the cornea was measured. The fluorescein-stained area of the photographed cornea was computed using an image analysis processing system.
# as §1, with “1” for “3”, “2,” for “4,”, “PBS” for “physiological saline”
Substance,Healing ratio (%) ([1]; 0 hr (baseline)),Healing ratio (%) ([1]; 12 hr),Healing ratio (%) ([1]; 18 hr),Healing ratio (%) ([1]; 24 hr),Healing ratio (%) ([1]; 30 hr),Healing ratio (%) ([2]; 0 hr (baseline)),Healing ratio (%) ([2]; 6 hr),Healing ratio (%) ([2]; 12 hr),Healing ratio (%) ([2]; 24 hr),Healing ratio (%) ([2]; 36 hr),Healing ratio (%) ([2]; 48 hr)
hyaluronic acid,0,13.98 ± 4.88* %,28.45 ± 3.37* %,60.78 ± 8.07** %,60.78 ± 8.07* %,,,,,,
"EGF: polypeptide with a molecular weight of 6000, mitosis-promoting growth factor for corneal epithelium",,,,,,0,14.49 ± 3.42** %,31.63 ± 1.29** %,70.78 ± 6.91** %,96.41 ± 3.97* %,99.58 ± 1.03
